Results as given in paper PMC3960879 (Biology, 2013).
Where two headings read alike, the source gives them in different places.

How the values were obtained:
[1] = molecular target: T1, F17aG receptor-binding domain (Escherichia coli, UniProt Q99003); test: biochemical; settings: SPR steady state, 25 °C, pH 7.4
T1 construct: variants of the lectin domains with oligolysine (4Lys) tails have been constructed; made in house; host or cells: E. coli (periplasm)
Experimental: (§1) The affinity profiles were determined by surface plasmon resonance (SPR) measurements using a BiaCore 3000 instrument (GE Healthcare). […] The proteins were covalently immobilized on CM5 sensor chips (Biacore AB) to an average density of 2000 RU (resonance units in pg/mm^2). On each chip, one flow cell was coated with a camel single domain antibody for use as a reference cell. The other three flow cells (Fc2, Fc3 and Fc4) were coated with three different F17G variants. Carbohydrate concentrations ranging from 10 µM to 10 mM in running buffer (20 mM Hepes, pH 7.4; 150 mM NaCl; 3 mM EDTA and 0.005% surfactant Tween 20) were incubated for one minute on all flow cells simultaneously, at 25 °C and at a flow rate of 30 µL/min. Complete dissociation of the carbohydrates in running buffer was verified before starting a new binding cycle. All binding cycles were performed in duplicate, including a zero concentration cycle (injection of pure running buffer). All analysis was done using the BIAeval software. In each case the equilibrium resonance signal from the reference cell was subtracted from that of the various F17G flow cells (2-1, 3-1, 4-1). A Langmuir binding isotherm with a 1:1 stoichiometry was fitted to the data, from which the equilibrium dissociation constants, Kd, were obtained.

[2] = molecular target: F17eG receptor-binding domain; test: Surface plasmon resonance steady-state affinity, immobilized F17eG; set-up: species or system Escherichia coli; settings: SPR steady state, 25 °C, pH 7.4
Experimental: as §1

[3] = molecular target: F17fG receptor-binding domain (Escherichia coli, UniProt Q9RH91); test: Surface plasmon resonance steady-state affinity, immobilized F17fG
Experimental: as §1

F17aG lectin domain = F17aG lectin domain (Escherichia coli, UniProt Q99003); settings: CFG glycan array version 2; F17G at 200 µg/mL; SEM in parentheses
Experimental: (§2) A microarray presenting 264 different glycans (mammalian printed array version 2) was used to evaluate if the F17G variant lectin domains differ in the range of glycan receptors that they recognize, thereby establishing tropism. The microarray was set up within the Consortium for Functional Glycomics (CFG) ([20], and supplemental data). Binding of F17G (200 µg/mL) was detected using anti-F17G polyclonal rabbit IgG (10 µg/mL), followed by fluorescently labelled goat anti-rabbit polyclonal antibodies (IgG-488, 5 µg/mL).
(§3) A microarray presenting 264 different glycans (mammalian printed array version 2 from the CFG, experiment 400) was used to evaluate whether the F17G variant lectin domains differ in the range of glycan receptors that they can recognize, thereby establishing strain-dependent tropism. […] The glycan array screening has been repeated for F17aG only on printed array version 4.1 (experiment 2053) (Figure 1).
(§4) Printed array version 2 at the Consortium for Functional Glycomics was used for glycan array screening of the variant F17G receptor binding domains. Slides were printed, with six replicates for each glycan, using glycan spotting concentrations of 100 μM, at the Consortium Carbohydrate Synthesis/Protein Expression Core D located at the Scripps Research Institute onto Schott Nexterion H slides (Schott Cat. No. 1070936B). Slide conditioning: preprinted slides were soaked in deionized water for 5 minutes at room temperature and dried under a stream of nitrogen. TSM buffer (20 mM Tris-HCl, pH 7.4, or MOPS 20 mM; 150 mM NaCl; 2 mM CaCl2, 2 mM MgCl2) was used as wash buffer (TSM buffer + 0.05% Tween 20) or binding buffer (TSM buffer + 0.05% Tween 20 + 1% BSA). (1) F17G was diluted to 200 μg/mL (Figure 1) in TSM binding buffer. (2) 50 μL of F17G was applied to the printed surface and coverslipped. (3) The slide was incubated, protected from light, in a humidified chamber for 1 hour at RT. (4) The slide was washed once in TSM wash buffer. 50 μL of the anti-F17G (10 μg/mL) polyclonal rabbit IgG were applied, coverslipped and incubated for 1 h at RT. (5) The slide was washed once in TSM wash buffer. Fifty μL of fluorescently labelled secondary goat anti-rabbit polyclonal antibodies (IgG-488, 5 µg/mL) were applied, coverslipped and incubated for 1 h at RT. (6) Slide was removed, followed by the coverslip, and washed for 10 s each in TSM wash buffer, TSM wash buffer lacking Tween 20, and deionized water. The slide was dried under a stream of nitrogen. (7) The binding image was read in a Perkin Elmer Microscanarray XL4000 scanner and tiff file of image stored. (8) Image analysis was performed using Imagene (V.6) image analysis software. (9) Raw data results files were generated in Excel format and uploaded to the Consortium database as .dat files. (10) Imagene data was uploaded to the database as .txt files.

F17bG lectin domain = F17bG lectin domain (Escherichia coli, UniProt Q47200); settings: CFG glycan array version 2; F17G at 200 µg/mL; SEM in parentheses
Experimental: as §2, §3, §4

F17dG lectin domain = F17dG lectin domain (Escherichia coli, UniProt Q47199); settings: CFG glycan array version 2; F17G at 200 µg/mL; SEM in parentheses
Experimental: as §2, §3, §4

F17eG lectin domain = test: CFG mammalian printed glycan array version 2 (experiment 400), F17eG; type: binding, Escherichia coli; settings: CFG glycan array version 2; F17G at 200 µg/mL; SEM in parentheses
Excerpt: (§5) The slide was dried under a stream of nitrogen.

F17fG lectin domain = test: CFG mammalian printed glycan array version 2 (experiment 400), F17fG; type: binding, Escherichia coli; settings: CFG glycan array version 2; F17G at 200 µg/mL; SEM in parentheses
Excerpt: as §5

[4] = good fit for at least three related experiments, read-out: dissociation constant Kd, F17aG
[5] = read-out: Affinity range (Kd class), F17aG
[6] = good fit for at least three related experiments, read-out: dissociation constant Kd, F17eG
[7] = read-out: Affinity range (Kd class), F17eG
[8] = Affinity range (Kd class), F17aG

F17fG receptor-binding domain, sequence (Q9RH91 23-198): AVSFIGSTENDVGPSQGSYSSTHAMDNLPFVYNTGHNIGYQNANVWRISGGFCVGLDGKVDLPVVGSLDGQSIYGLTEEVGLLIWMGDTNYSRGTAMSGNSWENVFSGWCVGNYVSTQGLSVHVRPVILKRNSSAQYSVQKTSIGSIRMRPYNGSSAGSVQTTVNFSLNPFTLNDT
F17dG lectin domain, sequence (Q47199 23-199): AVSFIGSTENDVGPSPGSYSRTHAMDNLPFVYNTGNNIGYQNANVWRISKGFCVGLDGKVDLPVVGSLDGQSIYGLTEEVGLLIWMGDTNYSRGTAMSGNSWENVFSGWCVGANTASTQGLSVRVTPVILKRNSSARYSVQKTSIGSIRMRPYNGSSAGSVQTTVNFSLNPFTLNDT
F17bG lectin domain, sequence (Q47200 23-199): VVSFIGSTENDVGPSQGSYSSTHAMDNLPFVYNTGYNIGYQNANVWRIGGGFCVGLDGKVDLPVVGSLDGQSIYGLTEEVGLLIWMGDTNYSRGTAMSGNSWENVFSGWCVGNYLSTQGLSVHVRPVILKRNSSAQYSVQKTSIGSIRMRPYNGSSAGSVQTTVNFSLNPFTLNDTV
T1 sequence (Q99003 23-199): as the sequence (Q47199 23-199) above, with P16L, N33D, G35R, N37K, R47H, N90K counted along it
F17aG lectin domain, sequence (Q99003 23-199): as the sequence (Q47199 23-199) above, with P16L, N33D, G35R, N37K, R47H, N90K counted along it

| Molecule | Kd [1, 4] | Kd [1, 5] | Kd [2, 6] | Kd [2, 7] | Relative Fluorescence Units (RFU), averaged over six replicates, F17aG (F17aG lectin domain) | Relative Fluorescence Units (RFU), averaged over six replicates, F17bG (F17bG lectin domain) | Relative Fluorescence Units (RFU), averaged over six replicates, F17dG (F17dG lectin domain) | Relative Fluorescence Units (RFU), averaged over six replicates, F17eG (F17eG lectin domain) | Relative Fluorescence Units (RFU), averaged over six replicates, F17fG (F17fG lectin domain) | further results |
| --- | --- | --- | --- | --- | --- | --- | --- | --- | --- | --- |
| CO[C@@H]1O[C@H](CO)[C@H](O)[C@H](O)[C@H]1O[C@@H]1O[C@H](CO)[C@@H](O)[C@H](O)[C@H]1NC(C)=O [GlcNAcβ1,2Gal, GlcNAc(β1-2)Galβ1OMe] | 4200 µM | 1000 to 10000 µM | 2000 µM | 1000 to 10000 µM | – | – | – | – | – | – |
| Neu5Acα2,3Galβ1,4GlcNAcβ1,2 Man | – | – | – | 10000 to 100000 µM | – | – | – | – | – | – |
| CC(=O)N[C@H]1[C@H](O[C@@H]2[C@@H](OC[C@H]3OC(O)[C@@H](O)[C@@H](O[C@H]4O[C@H](CO)[C@@H](O)[C@H](O)[C@@H]4O[C@@H]4O[C@H](CO)[C@@H](O)[C@H](O)[C@H]4NC(C)=O)[C@@H]3O)O[C@H](CO)[C@@H](O)[C@@H]2O)O[C@H](CO)[C@@H](O)[C@@H]1O (stereo partly shown) [GlcNAcβ1,2Manα1,6(GlcNAcβ1,2Manα1,3)Man] | 3000 µM | 1000 to 10000 µM | 3000 µM | 1000 to 10000 µM | – | – | – | – | – | – |
| CC(=O)N[C@@H]1[C@@H](O)[C@H](O)[C@@H](CO)O[C@H]1O [GlcNAc, N-acetylglucosamine] | – | – | – | – | – | – | – | – | – | Kd [1, 8]: 1000 to 10000 µM; Kd ([1]; dissociation constant Kd, F17aG, good fit for at least three related experiments): 1200 µM; Kd [3]: 1000 to 10000 µM |
| GM1 ganglioside | – | – | – | – | – | – | – | – | – | Kd ([3]; SPR steady state, 25 °C, pH 7.4, read-out: Affinity range (Kd class), F17fG): > 100000 µM |
| CO[C@@H]1O[C@H](CO)[C@H](O[C@@H]2O[C@H](CO)[C@@H](O)[C@H](O)[C@H]2NC(C)=O)[C@H](O)[C@H]1O [GlcNAcβ1,4Gal, GlcNAc(β1-4)Galβ1OMe] | 3300 µM | 1000 to 10000 µM | 2700 µM | 1000 to 10000 µM | – | – | – | – | – | – |
| CC(=O)N[C@H]1[C@H]([C@H](O)[C@H](O)CO)OC(O)(C(=O)O)C[C@@H]1O (stereo partly shown) [N-acetylneuraminic acid] | – | – | – | – | – | – | – | – | – | Kd [1, 8]: > 100000 µM; Kd [3]: > 100000 µM |
| (GlcNAcβ1,3(GlcNAcβ1,6)GlcNAcβ1,4)GlcNAc-Sp8 | – | – | – | – | 20,305 (2,023) RFU | 6,148 (1,367) RFU | 8,080 (1,518) RFU | 50,775 (6,375) RFU | 2,992 (992) RFU | – |
| Neu5Acα2,3(Neu5Acα2,6)GalNAcα-Sp8 | – | – | – | – | 4,527 (4,043) RFU | 4,331 (1,760) RFU | 1,388 (1,162) RFU | 1,229 (1,162) RFU | 1,717 (229) RFU | – |
| CC(=O)N[C@H]1[C@H](OCCCN)O[C@H](CO)[C@@H](O)[C@@H]1O [GlcNAcβ-Sp8] | – | – | – | – | 22,909 (3,087) RFU | 12,289 (1,168) RFU | 2,514 (365) RFU | 31,863 (4,615) RFU | 10,738 (2,670) RFU | – |
